Data taken from the Kinase Knowledgebase extract (Sharma et al. 2016).

The compounds below were run against CDK2 (UniProt P24941) (assay: Enzyme Assay). Conditions: concentration not given here.

Row | SMILES | inhibition
1 | Nc1ccc(S(=O)(=O)Nc2ccc3[nH]nc(-c4ccccc4)c3c2)cc1 | 70%
2 | O=C(O)c1cccc(S(=O)(=O)Nc2ccc3[nH]nc(-c4ccccc4)c3c2)c1 | 40%
3 | Nc1n[nH]c2ccc(NS(=O)(=O)c3cccc(F)c3)cc12 | 34%
4 | O=S(=O)(Nc1ccc2[nH]nc(-c3ccccc3)c2c1)c1ccccc1OC(F)(F)F | 74%
5 | Cc1cc2[nH]nc(-c3ccccc3)c2cc1NS(=O)(=O)c1ccccc1S(C)(=O)=O | 62%
6 | O=S(=O)(Nc1ccc2[nH]nc(-c3ccccc3)c2c1)c1ccc2ccccc2c1 | 78%
7 | COC(=O)/C=C/c1n[nH]c2ccc(NS(=O)(=O)c3ccccc3S(C)(=O)=O)cc12 | 37%
8 | O=S(=O)(Nc1ccc2[nH]nc(-c3ccccc3)c2c1)c1ccccc1 | 84%
9 | O=S(=O)(Nc1ccc2[nH]nc(-c3ccccc3)c2c1)c1ccc(F)c(F)c1 | 67%
10 | CS(=O)(=O)c1ccccc1S(=O)(=O)Nc1ccc2[nH]nc(/C=C/c3ccc(Cl)cc3)c2c1 | 96%
11 | CS(=O)(=O)c1ccccc1S(=O)(=O)Nc1ccc2[nH]nc(-c3cc(Cl)cc(Cl)c3)c2c1 | 50%
12 | Cc1ccccc1S(=O)(=O)Nc1ccc2[nH]nc(-c3ccccc3)c2c1 | 77%
13 | CS(=O)(=O)c1ccccc1S(=O)(=O)Nc1ccc2[nH]nc(-c3cc4ccccc4s3)c2c1 | 63%
14 | CS(=O)(=O)c1ccccc1S(=O)(=O)Nc1ccc2[nH]nc(-c3cccc(Cl)c3Cl)c2c1 | 0%
15 | CS(=O)(=O)c1ccccc1S(=O)(=O)Nc1ccc2[nH]nc(NCc3ccccc3)c2c1 | 92%
16 | O=[N+]([O-])c1ccc(S(=O)(=O)Nc2ccc3[nH]nc(-c4ccccc4)c3c2)cc1 | 50%
17 | O=S(=O)(Nc1ccc2[nH]nc(-c3ccc(O)cc3)c2c1)c1ccccc1 | 89%
18 | CS(=O)(=O)c1ccccc1S(=O)(=O)Nc1ccc2[nH]nc(N)c2c1 | 72%
19 | CC(=O)Nc1n[nH]c2ccc(NS(=O)(=O)c3cc(F)cc(F)c3)cc12 | 82%

Row | SMILES | inhibition
20 | CS(=O)(=O)c1ccccc1S(=O)(=O)Nc1ccc2[nH]nc(-c3cc4ccccc4[nH]3)c2c1 | 99%
21 | O=S(=O)(Nc1ccc2[nH]nc(-c3ccccc3)c2c1)c1cccs1 | 80%
22 | CS(=O)(=O)c1ccccc1S(=O)(=O)Nc1ccc2[nH]nc(-c3ccc(Br)cc3F)c2c1 | 65%
23 | CC(=O)Nc1n[nH]c2ccc(NS(=O)(=O)c3ccccc3S(C)(=O)=O)cc12 | 96%
24 | CCOc1ccccc1-c1n[nH]c2ccc(NS(=O)(=O)c3ccccc3S(C)(=O)=O)cc12 | 31%
25 | CS(=O)(=O)c1ccccc1S(=O)(=O)Nc1ccc2[nH]nc(-c3cc(Cl)ccc3Cl)c2c1 | 27%
26 | Nc1n[nH]c2ccc(NS(=O)(=O)c3c(Cl)cccc3Cl)cc12 | 18%
27 | CS(=O)(=O)c1ccccc1S(=O)(=O)Nc1ccc2[nH]nc(-c3cccc(OCc4ccccc4)c3)c2c1 | 0%
28 | Cc1ccccc1-c1n[nH]c2ccc(NS(=O)(=O)c3ccccc3S(C)(=O)=O)cc12 | 25%
29 | CS(=O)(=O)c1ccccc1S(=O)(=O)Nc1ccc2[nH]nc(-c3cccc(OC(F)(F)F)c3)c2c1 | 60%
30 | CCCCS(=O)(=O)Nc1ccc2[nH]nc(-c3ccccc3)c2c1 | 30%
31 | O=[N+]([O-])c1ccccc1S(=O)(=O)Nc1ccc2[nH]nc(-c3ccccc3)c2c1 | 81%
32 | CS(=O)(=O)c1ccccc1S(=O)(=O)Nc1ccc2[nH]nc(-c3ccc(OCc4ccccc4)c(F)c3)c2c1 | 41%
33 | CS(=O)(=O)c1ccccc1S(=O)(=O)Nc1ccc2[nH]nc(-c3cccc([N+](=O)[O-])c3)c2c1 | 82%
34 | O=S(=O)(Nc1ccc2[nH]nc(-c3ccccc3)c2c1)c1cccc2nonc12 | 67%
35 | Nc1n[nH]c2ccc(NS(=O)(=O)c3cc(F)cc(F)c3)cc12 | 0%
36 | O=S(=O)(Nc1ccc2[nH]nc(-c3cc4ccccc4[nH]3)c2c1)c1ccccc1 | 100%
37 | CC(C)c1cccc(-c2n[nH]c3ccc(NS(=O)(=O)c4ccccc4S(C)(=O)=O)cc23)c1 | 59%
38 | CS(=O)(=O)c1ccccc1S(=O)(=O)Nc1ccc2[nH]nc(-c3cccnc3)c2c1 | 88%

More lines, now with the values ahead:

Row | inhibition | SMILES
39 | 77% | CCSc1ccc(-c2n[nH]c3ccc(NS(=O)(=O)c4ccccc4S(C)(=O)=O)cc23)cc1
40 | 74% | CCOc1ccc(-c2n[nH]c3ccc(NS(=O)(=O)c4ccccc4S(C)(=O)=O)cc23)cc1
41 | 93% | COc1ccc(-c2n[nH]c3ccc(NS(=O)(=O)c4ccccc4S(C)(=O)=O)cc23)cc1
42 | 94% | CS(=O)(=O)c1ccccc1S(=O)(=O)Nc1ccc2[nH]nc(-c3ccc(F)cc3)c2c1
43 | 75% | Cc1ccc(-c2n[nH]c3ccc(NS(=O)(=O)c4ccccc4S(C)(=O)=O)cc23)cc1C
44 | 20% | CS(=O)(=O)c1ccccc1S(=O)(=O)Nc1ccc2[nH]nc(-c3ccc(I)cc3)c2c1
45 | 73% | CS(=O)(=O)c1ccccc1S(=O)(=O)Nc1ccc2[nH]nc(-c3cccc(O)c3)c2c1
46 | 100% | COc1ccc2[nH]c(-c3n[nH]c4ccc(NS(=O)(=O)c5ccccc5S(C)(=O)=O)cc34)cc2c1
47 | 61% | CS(=O)(=O)c1ccccc1S(=O)(=O)Nc1ccc2[nH]nc(-c3ccc(C(=O)O)cc3)c2c1
48 | 16% | CS(=O)(=O)c1ccccc1S(=O)(=O)Nc1ccc2[nH]nc(-c3ccc(OCc4ccccc4)cc3)c2c1
49 | 77% | CS(=O)(=O)c1ccccc1S(=O)(=O)Nc1ccc2[nH]nc(-c3ccc(F)c(Cl)c3)c2c1
50 | 66% | CS(=O)(=O)c1ccccc1S(=O)(=O)Nc1ccc2[nH]nc(-c3ccc(Cl)c(Cl)c3)c2c1
51 | 75% | CS(=O)(=O)c1ccc(-c2n[nH]c3ccc(NS(=O)(=O)c4ccccc4S(C)(=O)=O)cc23)cc1
52 | 27% | COc1ccc(-c2n[nH]c3ccc(NS(=O)(=O)c4ccccc4S(C)(=O)=O)cc23)c(OC)c1
53 | 85% | CS(=O)(=O)c1ccccc1S(=O)(=O)Nc1ccc2[nH]nc(-c3ccc(N)cc3)c2c1
54 | 84% | CSc1ccc(-c2n[nH]c3ccc(NS(=O)(=O)c4ccccc4S(C)(=O)=O)cc23)cc1
55 | 75% | CS(=O)(=O)c1ccccc1S(=O)(=O)Nc1ccc2[nH]nc(-c3ccc(Br)cc3)c2c1
56 | 88% | CS(=O)(=O)c1ccccc1S(=O)(=O)Nc1ccc2[nH]nc(-c3cccc(N)c3)c2c1
57 | 60% | CCOc1cccc(-c2n[nH]c3ccc(NS(=O)(=O)c4ccccc4S(C)(=O)=O)cc23)c1
58 | 72% | CS(=O)(=O)c1ccccc1S(=O)(=O)Nc1ccc2[nH]nc(-c3ccc(F)c(F)c3)c2c1
